US3978035A, “13-Norleucine-14-desamido motilin, a method for preparing it and an agent containing it” (Max-Planck-Gesellschaft zur Forderung der Wissenschaften …, priority 1973, dated 1976)
Where a SMILES comes first, the peptide text is derived from it. [ ]: non-standard residue; d: D form. Nle = CCCC[C@H](N)C(=O)O

Test: biological activity in comparison with natural motilin
Conditions: after purification on ion exchangers; relative to naturally occurring motilin (method reference: J. C. Brown et al.)

SMILES | biological activity in comparison with natural motilin
CCCC[C@H](NC(=O)[C@H](CCCNC(=N)N)NC(=O)[C@H](CCC(N)=O)NC(=O)[C@H](CC(C)C)NC(=O)[C@H](CCC(=O)O)NC(=O)CNC(=O)[C@H](Cc1ccc(O)cc1)NC(=O)[C@@H](NC(=O)[C@H](Cc1ccccc1)NC(=O)[C@@H](NC(=O)[C@@H]1CCCN1C(=O)[C@@H](NC(=O)[C@@H](N)Cc1ccccc1)C(C)C)[C@@H](C)CC)[C@@H](C)O)C(=O)N[C@@H](CCC(=O)O)C(=O)N[C@@H](CCC(=O)O)C(=O)N[C@@H](CCCCN)C(=O)N[C@@H](CCC(=O)O)C(=O)N[C@@H](CCCNC(=N)N)C(=O)N[C@@H](CC(N)=O)C(=O)N[C@@H](CCCCN)C(=O)NCC(=O)N[C@@H](CCC(N)=O)C(=O)O [C1 -fraction] (H-FVPIFTYGELQR[Nle]EEKERNKGQ-OH) | over 90%
CCCC[C@H](NC(=O)[C@H](CCCNC(=N)N)NC(=O)[C@H](CCC(N)=O)NC(=O)[C@H](CC(C)C)NC(=O)[C@H](CCC(=O)O)NC(=O)CNC(=O)[C@H](Cc1ccc(O)cc1)NC(=O)[C@@H](NC(=O)[C@H](Cc1ccccc1)NC(=O)[C@@H](NC(=O)[C@@H]1CCCN1C(=O)[C@@H](NC(=O)[C@@H](N)Cc1ccccc1)C(C)C)[C@@H](C)CC)[C@@H](C)O)C(=O)N[C@@H](CCC(=O)O)C(=O)N[C@@H](CCC(=O)O)C(=O)N[C@@H](CCCCN)C(=O)N[C@@H](CCC(=O)O)C(=O)N[C@@H](CCCNC(=N)N)C(=O)N[C@@H](CC(N)=O)C(=O)N[C@@H](CCCCN)C(=O)NCC(=O)N[C@@H](CCC(N)=O)C(=O)O [13-norleucine-14-desamido-motilin] (H-FVPIFTYGELQR[Nle]EEKERNKGQ-OH) | above 90%
